One test has as its target T1, Type-A CCK receptor (Cavia porcellus, UniProt Q63931).
T1 construct: Cortical and pancreatic membranes were prepared as described; from tissue; host or cells: guinea pig pancreas membranes
T1 sequence (Q63931 1-430): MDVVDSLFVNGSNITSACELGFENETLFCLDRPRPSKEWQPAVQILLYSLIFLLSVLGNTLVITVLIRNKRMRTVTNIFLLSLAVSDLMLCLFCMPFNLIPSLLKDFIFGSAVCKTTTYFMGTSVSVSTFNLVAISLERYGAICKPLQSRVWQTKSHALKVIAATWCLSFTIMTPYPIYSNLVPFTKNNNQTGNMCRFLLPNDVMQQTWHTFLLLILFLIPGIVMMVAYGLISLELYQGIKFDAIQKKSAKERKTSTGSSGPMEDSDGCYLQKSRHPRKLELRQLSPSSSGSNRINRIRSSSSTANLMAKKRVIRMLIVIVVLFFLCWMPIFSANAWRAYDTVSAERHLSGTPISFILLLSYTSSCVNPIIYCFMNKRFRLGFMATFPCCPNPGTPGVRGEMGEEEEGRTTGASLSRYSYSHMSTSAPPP
Briefly: Radioligand binding of [125I]BH-CCK-8 in guinea pig pancreatic membrane preparations. An excerpt: (§1) CCK-8 [Asp-Tyr(SO3 H)-Met-Gly-Trp-Met-Asp-PheNH2 ], bestatin and phosphoramidion were purchased from Peptide International (Louisville, Ky.). EGTA (ethylene glycol-bis-(β-aminoethyl) N,N,N',N'-tetraacetic acid), HEPES (4-(2-hydroxyethyl)-1-piperazine-enthanesulfonic acid) and BSA (bovine serum albumin) were purchased from Sigma Chemical Co. (St. Louis, Mo.). [^125 I]-Bolton-Hunteer (BH-CCK-8) (specific activity, 2200 Ci/mmol) was obtained from New England Nuclear (Boston, Mass.). Male guinea pigs, 250 to 325 g, were obtained from Scientific Small Animal Laboratory and Farm (Arlington Heights, Ill.). Collagenase, code CLSPA was purchased from Worthington (Frehold, N.J.).
(§2) Protocol For Radioligand Binding Experiments in Guinea Pig Cerebral Cortical and Pancreatic Membrane Preparations
(§3) Cortical and pancreatic membranes were prepared as described (Lin and Miller; J. Pharmacol. Exp. Ther. 1985, 232:775-780,). In brief, cortex and pancreas were removed and rinsed with ice-cold saline. Visible fat and connective tissues were removed from the pancreas. […] The homogenates were entrifuged for 10 minutes at 1075×g and pellets were discarded. The supernatants were saved and centrifuged at 38,730×g for 20 minutes. The resultant pellets were rehomogenized in 25 mL of 50 mM Tris-HCl buffer with a Teflon-glass homogenizer, 5 up and down strokes. The homogenates were centrifuged again at 38,730×g for 20 minutes. Pellets werre then resuspended in 20 mM HEPES, containing 1 mM EGTA, 118 mM NaCl, 4.7 mM KCl, 5 mM MgCl2, 100 μM bestatin, 3 μM phosphoramidon, pH 7.4 at 22° C. with a Teflon-glass homogenizer, 15 up and down strokes. Resuspension volume for the cortex was 15-18 mL per gram of original wet weight and 60 mL per gram for the pancreas.
(§4) [^125 I]Bolton-Hunter CCK-8 and test compounds were diluted with HEPES-EGTA-salt buffer (see above) containing 0.5% BSA. To 1 mL Skatron polystyrene tubes were added 25 μL of test compounds, 25 μL of [^125 I]BH-CCK-8 and 200 μL of membrane suspension. The final BSA concentration was 0.1%. The cortical tissues were incubated at 30° C. for 150 minutes and pancreatic tissues were incubated at 37° C. for 150 min. Incubations were terminated by filtration using Skatron Cell Harvester and SS32 microfiber filter mats. […] IC50 s were determined from the Hill analysis.

The target in another test is T2, Type-B CCK receptor (Cavia porcellus, UniProt H0VZC5).
T2 construct: Cortical and pancreatic membranes were prepared as described; from tissue; host or cells: guinea pig cerebral cortex membranes
T2 sequence (H0VZC5 1-426): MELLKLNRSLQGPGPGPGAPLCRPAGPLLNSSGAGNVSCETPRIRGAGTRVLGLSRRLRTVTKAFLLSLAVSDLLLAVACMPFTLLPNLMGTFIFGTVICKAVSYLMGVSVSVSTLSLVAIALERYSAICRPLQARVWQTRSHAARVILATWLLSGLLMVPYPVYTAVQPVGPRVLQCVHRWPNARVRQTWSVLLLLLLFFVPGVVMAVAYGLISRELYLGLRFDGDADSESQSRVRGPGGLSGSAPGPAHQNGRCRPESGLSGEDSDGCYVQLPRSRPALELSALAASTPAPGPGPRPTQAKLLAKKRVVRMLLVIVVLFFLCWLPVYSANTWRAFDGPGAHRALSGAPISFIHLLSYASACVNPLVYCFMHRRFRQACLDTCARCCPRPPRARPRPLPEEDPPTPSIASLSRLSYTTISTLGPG
As to the kind of experiment: Radioligand binding of [125I]BH-CCK-8 in guinea pig cerebral cortical membrane preparations.
Text: as §1, §2, §3, §4

Setting [1] is: IC50 (nM) 125I-BH-CCK-8 Type-A receptor, guinea pig pancreatic membranes, 37° C., 150 min.
[2] abbreviates: IC50 (nM) 125I-BH-CCK-8 Type-B receptor, guinea pig cortical membranes, 30° C., 150 minutes.
[3] abbreviates: guinea pig cortical membranes, 30° C., 150 minutes, read-out: IC50 (nM) 125I-BH-CCK-8 Type-B receptor.

Where two headings read alike, the source gives them in different places. *1 amine or outer side, *2 acyl side, *3 side chain or, on linkers, in order; H or OH if unused. Where a SMILES comes first, the peptide text is derived from it. Side-chain parts run from the residue outwards. [ ]: non-standard residue; d: D form. The star is where a group is joined. 2Naphthoyl(6-OH) = O=C(c1ccc2cc(O)ccc2c1)*; Butanoyl(3,3-Me2) = CC(C)(C)CC(=O)*; Adoc = O=C(OC12CC3CC(CC(C3)C1)C2)*; NMeF = CN[C@@H](Cc1ccccc1)C(=O)O; NH(2-Me-phenyl) = Cc1ccccc1N*; 3Abz = Nc1cccc(C(=O)O)c1; 2Abz = Nc1ccccc1C(=O)O; PhAc = O=C(Cc1ccccc1)*; Boc = CC(C)(C)OC(=O)*; X24 = CC(C)c1ccccc1N*; CO = O=C([*:1])[*:2]; Bz = O=C(c1ccccc1)*

`Cc1ccccc1NC(=O)NCCCC[C@H](NC(=O)[C@H](Cc1c[nH]c2ccccc12)NC(=O)OC12CC3CC(CC(C3)C1)C2)C(=O)N[C@@H](CC(=O)O)C(=O)N(C)[C@@H](Cc1ccccc1)C(N)=O` [Example 75, 1-Adamantyloxycarbonyl-Trp-Lys(ε-N-(2-methylphenyl)aminocarbonyl)-Asp-(NMe)PheNH2] (Adoc-WK([CO-NH(2-Me-phenyl)])D[NMeF]-NH2): the IC50 at Type-A CCK receptor was 17 nM; on Type-B CCK receptor, 10000 nM.

For `Cc1ccccc1NC(=O)NCCCC[C@H](NC(=O)[C@H](Cc1c[nH]c2ccccc12)NC(=O)Cc1ccccc1)C(=O)N[C@@H](CC(=O)O)C(=O)N(C)[C@@H](Cc1ccccc1)C(N)=O` [Example 91, Phenylacetyl-Trp-Lys(ε-N-(2-methylphenyl)aminocarbonyl)-Asp-(NMe)PheNH2] (PhAc-WK([CO-NH(2-Me-phenyl)])D[NMeF]-NH2), the values for the IC50 on Type-A CCK receptor (setting [1]) and on Type-B CCK receptor (setting [2]) were 19 nM and over 10000 nM, respectively.

Turning to `Cc1ccccc1NC(=O)NCCCC[C@H](NC(=O)C(C)Cc1c[nH]c2ccccc12)C(=O)N[C@@H](CC(=O)O)C(=O)N(C)[C@@H](Cc1ccccc1)C(N)=O` (some centres unmarked) [Example 104, (2-Methyl-3-(3-indolyl)propionyl)-Lys(ε-N-(2-methylphenyl)aminocarbonyl)-Asp-(NMe)PheNH2], the IC50 at Type-A CCK receptor (guinea pig pancreatic membranes, 37° C., 150 min, read-out: IC50 (nM) 125I-BH-CCK-8 Type-A receptor) came out at 200 nM; at Type-B CCK receptor (setting [3]) it was 4100 nM.

Take `Cc1ccccc1NC(=O)NCCCC[C@H](NC(=O)[C@H](Cc1c[nH]c2ccccc12)NC(=O)c1ccccc1)C(=O)N[C@@H](CC(=O)O)C(=O)N(C)[C@@H](Cc1ccccc1)C(N)=O` [Example 89, Benzoyl-Trp-Lys(ε-N-(2-methylphenyl)aminocarbonyl)-Asp-(NMe)PheNH2] (Bz-WK([CO-NH(2-Me-phenyl)])D[NMeF]-NH2): the IC50 was 1.8 nM on Type-A CCK receptor (setting [1]) and 4600 nM at Type-B CCK receptor (setting [2]).

Regarding `Cc1ccccc1NC(=O)NCCCC[C@H](NC(=O)[C@H](Cc1c[nH]c2ccccc12)NC(=O)CC(C)(C)C)C(=O)N[C@@H](CC(=O)O)C(=O)N(C)[C@@H](Cc1ccccc1)C(N)=O` [Example 87, t-Butylacetyl-Trp-Lys(ε-N-(2-methylphenyl)aminocarbonyl)-Asp-(NMe)PheNH2] ({Butanoyl(3,3-Me2)}-WK([CO-NH(2-Me-phenyl)])D[NMeF]-NH2), the concentration for half-maximal inhibition (IC50) at Type-A CCK receptor (setting [1]) worked out at 4.5 nM; on Type-B CCK receptor (setting [2]), 8400 nM.

Consider `COC(=O)c1ccccc1NC(=O)NCCCC[C@H](NC(=O)[C@H](Cc1c[nH]c2ccccc12)NC(=O)OC(C)(C)C)C(=O)N[C@@H](CC(=O)O)C(=O)N[C@@H](Cc1ccccc1)C(N)=O` [Example 45, t-BOC-Trp-Lys(ε-N-(2-(methoxycarbonyl)phenyl)aminocarbonyl)-Asp-PheNH2] (Boc-WK([CO-2Abz-OMe])DF-NH2), for which the IC50 at Type-B CCK receptor was 3000 nM.

For `CC(C)c1ccccc1NC(=O)NCCCC[C@H](NC(=O)[C@H](Cc1c[nH]c2ccccc12)NC(=O)OC(C)(C)C)C(=O)N[C@@H](CC(=O)O)C(=O)N[C@@H](Cc1ccccc1)C(N)=O` [Example 41, t-BOC-Trp-Lys(ε-N-(2-isopropylphenyl)aminocarbonyl)-Asp-PheNH2] (Boc-WK([CO-X24])DF-NH2), the IC50 on Type-B CCK receptor (setting [3]) was 5700 nM.

With `COC(=O)c1cccc(NC(=O)NCCCC[C@H](NC(=O)[C@H](Cc2c[nH]c3ccccc23)NC(=O)OC(C)(C)C)C(=O)N[C@@H](CC(=O)O)C(=O)N[C@@H](Cc2ccccc2)C(N)=O)c1` [Example 46, t-BOC-Trp-Lys(ε-N-(3-(methoxycarbonyl)phenyl)aminocarbonyl)-Asp-PheNH2] (Boc-WK([CO-3Abz-OMe])DF-NH2), the half-maximal inhibitory concentration (IC50) at Type-B CCK receptor (setting [3]) was found to be 1400 nM.

On to `CN(C(=O)[C@H](CC(=O)O)NC(=O)[C@H](CCCCNC(=O)c1ccc2cc(O)ccc2c1)NC(=O)[C@H](Cc1c[nH]c2ccccc12)NC(=O)OC(C)(C)C)[C@@H](Cc1ccccc1)C(N)=O` [Example 19, t-BOC-Trp-Lys(ε-N-(6-hydroxy-β-naphthoyl))-Asp-(NMe)PheNH2] (Boc-WK(2Naphthoyl(6-OH))D[NMeF]-NH2), for which the IC50 on Type-B CCK receptor (setting [3]) was 730 nM.

The values above are taken from patent US5270302A, “Derivatives of tetrapeptides as CCK agonists” (priority 1991, dated 1993).
